Assay [1] relates to TGW. In words: cells. In kind it is functional, cell-based. To be noted: Homo sapiens.
Description: SANGER: Inhibition of human TGW cell growth in a cell viability assay.
The test system of assay [2] is SCLC-21H. Description: cells. To be noted: Homo sapiens. In kind it is functional, cell-based.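 Note: growth inhibition of cultured human SCLC-21H cells, read out with a cell viability assay.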
Description: SANGER: Inhibition of human SCLC-21H cell growth in a cell viability assay.
Assay [3] concerns CMK. In words: cells. In kind it is functional, cell-based. To be noted: Homo sapiens.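 Note: growth inhibition of CMK cells, read out as cell viability.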
Description: SANGER: Inhibition of human CMK cell growth in a cell viability assay.
The test system of assay [4] is TALL-1. Description: cells. In kind it is functional, cell-based. To be noted: Homo sapiens.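 Note: growth inhibition of cultured human TALL-1 cells, read out by a cell viability assay.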
Description: SANGER: Inhibition of human TALL-1 cell growth in a cell viability assay.
The subject of assay [5] is LOUCY. In words: cells. It is filed as functional, cell-based. To be noted: Homo sapiens.
Description: SANGER: Inhibition of human LOUCY cell growth in a cell viability assay.
Assay [6] has as its system RPMI 8402. Description: SANGER: Inhibition of human RPMI-8402 cell growth in a cell viability assay. In kind it is functional, cell-based.
Assay [7] deals with DG-75. In words: cells. It is filed as functional, cell-based. To be noted: Homo sapiens.
Description: SANGER: Inhibition of human DG-75 cell growth in a cell viability assay.
Assay [8] concerns LP-1. In words: cells. It is filed as functional, cell-based. To be noted: Homo sapiens.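 Note: growth inhibition of human LP-1 cells, with the read-out taken from a cell viability assay.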
Description: SANGER: Inhibition of human LP-1 cell growth in a cell viability assay.
Assay [9] concerns SNU-16. Description: cells. It is filed as functional, cell-based. To be noted: Homo sapiens.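 Note: growth inhibition of human SNU-16 cells, determined with a cell viability readout.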
Description: SANGER: Inhibition of human NCI-SNU-16 cell growth in a cell viability assay.
Assay [10] has as its system BC1 cell line. In words: SANGER: Inhibition of human BC-1 cell growth in a cell viability assay. It is filed as functional, cell-based.
Assay [11] concerns LCLC-103H cell line. In words: cells. In kind it is functional, cell-based. To be noted: Homo sapiens.
Description: SANGER: Inhibition of human LCLC-103H cell growth in a cell viability assay.
In assay [12] the test system is 8505C. Description: cells. In kind it is functional, cell-based. To be noted: Homo sapiens.
Description: SANGER: Inhibition of human 8505C cell growth in a cell viability assay.
Assay [13] has as its system MC-IXC. In words: cells. It is filed as functional, cell-based. To be noted: Homo sapiens.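 Note: growth inhibition of MC-IXC cells, read out with a cell viability assay.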
Description: SANGER: Inhibition of human MC-IXC cell growth in a cell viability assay.
Assay [14] deals with Ca9-22. Description: cells. It is filed as functional, cell-based. To be noted: Homo sapiens.
Description: SANGER: Inhibition of human Ca9-22 cell growth in a cell viability assay.
The test system of assay [15] is HPAF-II. Description: cells. In kind it is functional, cell-based. To be noted: Homo sapiens.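 Note: growth inhibition of HPAF-II cells, read out with a cell viability assay.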
Description: SANGER: Inhibition of human HPAF-II cell growth in a cell viability assay.
The subject of assay [16] is HuO-3N1. In words: cells. It is filed as functional, cell-based. To be noted: Homo sapiens.
Description: SANGER: Inhibition of human HuO-3N1 cell growth in a cell viability assay.
Assay [17] deals with ACHN. Description: cells. In kind it is functional, cell-based. To be noted: Homo sapiens.
Description: SANGER: Inhibition of human ACHN cell growth in a cell viability assay.
Assay [18] relates to NCI-H1563. Description: cells. It is filed as functional, cell-based. To be noted: Homo sapiens.
Description: SANGER: Inhibition of human NCI-H1563 cell growth in a cell viability assay.
For assay [19], the system named is GCT. In words: cells. To be noted: Homo sapiens. It is filed as functional, cell-based.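 Note: GCT cell line proliferation inhibition, read out with a cell viability assay.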
Description: SANGER: Inhibition of human GCT cell growth in a cell viability assay.
In assay [20] the test system is SNU-423. In words: cells. In kind it is functional, cell-based. To be noted: Homo sapiens.
Description: SANGER: Inhibition of human SNU-423 cell growth in a cell viability assay.
Assay [21] relates to NCI-H2052. Description: cells. In kind it is functional, cell-based. To be noted: Homo sapiens.
Description: SANGER: Inhibition of human NCI-H2052 cell growth in a cell viability assay.
Assay [22] relates to CAL-54. In words: cells. To be noted: Homo sapiens. It is filed as functional, cell-based.
Description: SANGER: Inhibition of human CAL-54 cell growth in a cell viability assay.
Assay [23] concerns NCI-H2228. Description: cells. It is filed as functional, cell-based. To be noted: Homo sapiens.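 Note: growth inhibition of human NCI-H2228 cells, read out by a cell viability assay.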
Description: SANGER: Inhibition of human NCI-H2228 cell growth in a cell viability assay.
In assay [24] the test system is YAPC. Description: cells. In kind it is functional, cell-based. To be noted: Homo sapiens.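 Note: growth inhibition of YAPC cells, measured with a cell viability assay.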
Description: SANGER: Inhibition of human YAPC cell growth in a cell viability assay.
Assay [25] concerns NCI-H810. In words: cells. It is filed as functional, cell-based. To be noted: Homo sapiens.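 Note: IC50 reflects inhibition of cancer cell line growth, read out with a cell viability assay.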
Description: SANGER: Inhibition of human NCI-H810 cell growth in a cell viability assay.
The subject of assay [26] is ESS-1. Description: cells. It is filed as functional, cell-based. To be noted: Homo sapiens.
Description: SANGER: Inhibition of human ESS-1 cell growth in a cell viability assay.
Assay [27] deals with HT-29. Description: cells. It is filed as functional, cell-based. To be noted: Homo sapiens.
Description: SANGER: Inhibition of human HT-29 cell growth in a cell viability assay.
Assay [28] relates to HCC1806. Description: cells. To be noted: Homo sapiens. It is filed as functional, cell-based.
Description: SANGER: Inhibition of human HCC1806 cell growth in a cell viability assay.
The test system of assay [29] is LN-405. Description: cells. It is filed as functional, cell-based. To be noted: Homo sapiens.
Description: SANGER: Inhibition of human LN-405 cell growth in a cell viability assay.
Assay [30] concerns DMS-273. Description: cells. It is filed as functional, cell-based. To be noted: Homo sapiens.
Description: SANGER: Inhibition of human DMS-273 cell growth in a cell viability assay.
For assay [31], the system named is A 172. In words: cells. In kind it is functional, cell-based. To be noted: Homo sapiens.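 Note: growth inhibition of A172 cells, measured with a cell viability readout.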
Description: SANGER: Inhibition of human A172 cell growth in a cell viability assay.
Assay [32] concerns A-375. In words: cells. It is filed as functional, cell-based. To be noted: Homo sapiens.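 Note: growth inhibition of A375 cells, read out with a cell viability assay.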
Description: SANGER: Inhibition of human A375 cell growth in a cell viability assay.
For assay [33], the system named is CAL-39. In words: cells. It is filed as functional, cell-based. To be noted: Homo sapiens.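 Note: cell viability assay measuring growth inhibition of CAL-39 cells.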
Description: SANGER: Inhibition of human CAL-39 cell growth in a cell viability assay.
In assay [34] the test system is LCLC-97TM1. In words: cells. In kind it is functional, cell-based. To be noted: Homo sapiens.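 Note: cell viability assay measuring growth inhibition of human LCLC-97TM1 cells.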
Description: SANGER: Inhibition of human LCLC-97TM1 cell growth in a cell viability assay.
For assay [35], the system named is 786-0. Description: cells. In kind it is functional, cell-based. To be noted: Homo sapiens.
Description: SANGER: Inhibition of human 786-0 cell growth in a cell viability assay.
Assay [36] has as its system HEC-1. Description: cells. To be noted: Homo sapiens. In kind it is functional, cell-based.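 Note: growth inhibition of the cell line, read out with a cell viability assay.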
Description: SANGER: Inhibition of human HEC-1 cell growth in a cell viability assay.
Assay [37] concerns U-118-MG. Description: cells. It is filed as functional, cell-based. To be noted: Homo sapiens.
Description: SANGER: Inhibition of human U-118-MG cell growth in a cell viability assay.
The test system of assay [38] is SAS. Description: cells. In kind it is functional, cell-based. To be noted: Homo sapiens.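 Note: growth inhibition of SAS cells, read out with a cell viability assay.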
Description: SANGER: Inhibition of human SAS cell growth in a cell viability assay.
Assay [39] relates to SCC-4. Description: cells. In kind it is functional, cell-based. To be noted: Homo sapiens.
Description: SANGER: Inhibition of human SCC-4 cell growth in a cell viability assay.
Assay [40] relates to NCI-H460. In words: cells. In kind it is functional, cell-based. To be noted: Homo sapiens.
Description: SANGER: Inhibition of human NCI-H460 cell growth in a cell viability assay.
Assay [41] concerns MEL-HO. Description: cells. In kind it is functional, cell-based. To be noted: Homo sapiens.
Description: SANGER: Inhibition of human MEL-HO cell growth in a cell viability assay.
Assay [42] relates to S-117. In words: cells. To be noted: Homo sapiens. It is filed as functional, cell-based.
Description: SANGER: Inhibition of human S-117 cell growth in a cell viability assay.
In assay [43] the test system is SW48. In words: cells. In kind it is functional, cell-based. To be noted: Homo sapiens.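 Note: growth inhibition of SW48 cells, read out with a cell viability assay.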
Description: SANGER: Inhibition of human SW48 cell growth in a cell viability assay.
In assay [44] the test system is HGC-27. In words: cells. In kind it is functional, cell-based. To be noted: Homo sapiens.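 Note: growth inhibition of human HGC-27 cells, read out in a cell viability assay.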
Description: SANGER: Inhibition of human HGC-27 cell growth in a cell viability assay.
Assay [45] deals with HuP-T3. In words: cells. It is filed as functional, cell-based. To be noted: Homo sapiens.
Description: SANGER: Inhibition of human HuP-T3 cell growth in a cell viability assay.
The subject of assay [46] is BEN. In words: cells. To be noted: Homo sapiens. In kind it is functional, cell-based.
Description: SANGER: Inhibition of human BEN cell growth in a cell viability assay.
The subject of assay [47] is MeWo. Description: cells. To be noted: Homo sapiens. In kind it is functional, cell-based.
Description: SANGER: Inhibition of human Mewo cell growth in a cell viability assay.
In assay [48] the test system is NCI-H292. In words: cells. To be noted: Homo sapiens. In kind it is functional, cell-based.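 Note: growth inhibition of NCI-H292 cells, read out with a cell viability assay.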
Description: SANGER: Inhibition of human NCI-H292 cell growth in a cell viability assay.
Assay [49] relates to RO82-W-1. Description: cells. In kind it is functional, cell-based. To be noted: Homo sapiens.
Description: SANGER: Inhibition of human RO82-W-1 cell growth in a cell viability assay.
For assay [50], the system named is BPH-1. Description: cells. It is filed as functional, cell-based. To be noted: Homo sapiens.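 Note: cell viability assay measuring growth inhibition of human BPH-1 cells.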
Description: SANGER: Inhibition of human BPH-1 cell growth in a cell viability assay.
The test system of assay [51] is SK-HEP1. Description: cells. To be noted: Homo sapiens. In kind it is functional, cell-based, SK-HEP-1.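 Note: cell viability readout used to quantify reduction in proliferation of human SK-HEP-1 cells.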
Description: SANGER: Inhibition of human SK-HEP-1 cell growth in a cell viability assay.
The test system of assay [52] is MDA-MB-361. Description: cells. It is filed as functional, cell-based. To be noted: Homo sapiens.
The subject of assay [53] is COLO-678. In words: cells. In kind it is functional, cell-based. To be noted: Homo sapiens.
Description: SANGER: Inhibition of human COLO-678 cell growth in a cell viability assay.
In assay [54] the test system is 647-V. Description: cells. In kind it is functional, cell-based. To be noted: Homo sapiens.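 Note: growth inhibition of 647-V cells, read out with a cell viability assay.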
Description: SANGER: Inhibition of human 647-V cell growth in a cell viability assay.
Assay [55] has as its system BT-20. Description: cells. In kind it is functional, cell-based. To be noted: Homo sapiens.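 Note: cell viability assay measuring suppression of growth in human BT-20 cells.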
Description: SANGER: Inhibition of human BT-20 cell growth in a cell viability assay.
For assay [56], the system named is OVCAR-3. In words: cells. In kind it is functional, cell-based. To be noted: Homo sapiens.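 Note: growth inhibition of human OVCAR-3 cells, determined by a cell viability assay.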
Description: SANGER: Inhibition of human OVCAR-3 cell growth in a cell viability assay.
Assay [57] deals with OAW-28. In words: cells. To be noted: Homo sapiens. In kind it is functional, cell-based.
Description: SANGER: Inhibition of human OAW-28 cell growth in a cell viability assay.
The subject of assay [58] is HO-1-N-1. In words: cells. It is filed as functional, cell-based. To be noted: Homo sapiens.
Description: SANGER: Inhibition of human HO-1-N-1 cell growth in a cell viability assay.
In assay [59] the test system is DOK. Description: cells. In kind it is functional, cell-based. To be noted: Homo sapiens.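 Note: cell viability assay read-out, values reflect inhibition of cell growth.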
Description: SANGER: Inhibition of human DOK cell growth in a cell viability assay.
For assay [60], the system named is MDA-MB-157. In words: cells. In kind it is functional, cell-based. To be noted: Homo sapiens.
Description: SANGER: Inhibition of human MDA-MB-157 cell growth in a cell viability assay.
Assay [61] relates to MCF7. Description: cells. It is filed as functional, cell-based. To be noted: Homo sapiens.
Description: SANGER: Inhibition of human MCF7 cell growth in a cell viability assay.
The test system of assay [62] is SW626. Description: cells. It is filed as functional, cell-based. To be noted: Homo sapiens.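 Note: growth inhibition of SW626 cells, measured with a cell viability assay.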
Description: SANGER: Inhibition of human SW626 cell growth in a cell viability assay.
The test system of assay [63] is DK-MG. Description: cells. In kind it is functional, cell-based. To be noted: Homo sapiens.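 Note: growth inhibition of DK-MG cells, read out with a cell viability assay.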
Description: SANGER: Inhibition of human DK-MG cell growth in a cell viability assay.
For assay [64], the system named is SW1417. In words: cells. It is filed as functional, cell-based. To be noted: Homo sapiens.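 Note: growth inhibition of human SW1417 cells, read out with a cell viability assay.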
Description: SANGER: Inhibition of human SW1417 cell growth in a cell viability assay.

Broadly, the IC50 is the midpoint of a concentration-inhibition curve. A lower IC50 goes with higher potency. On to `CCNc1cc(N[C@H]2CC[C@@H](O)CC2)nc(Nc2ccc3c(ccn3Cc3ccccc3)c2)n1`, for which the half-inhibitory concentration (IC50) is greater than 5120 nM in assay [1]; greater than 5120 nM in assay [2]; greater than 5120 nM in assay [3]; greater than 5120 nM in [4]; greater than 5120 nM in assay [5]; 3480 nM in assay [6]. The concentration for half-maximal inhibition (IC50) in [7], in assay [8], in assay [9] and in assay [10] was greater than 5120 nM in each case.

For the compound `CO[C@@]12[C@H](COC(N)=O)C3=C(C(=O)C(C)=C(N)C3=O)N1C[C@@H]1N[C@@H]12` [MITOMYCIN], the IC50 in [11] is 461 nM; in [12], 430 nM; in [13] it was less than 62.5 nM; in [14], 156 nM; in assay [15], 1100 nM; in assay [16], 6450 nM. Moreover, the IC50 in [1] is 2760 nM; in assay [17] it was 72.1 nM; in assay [18], 1430 nM; in [19], 4600 nM; in assay [20], 1520 nM; in [21], 1990 nM. In addition, the IC50 was 1840 nM in [22]; less than 62.5 nM in assay [23]; 4370 nM in assay [24]; 252 nM in [25]; less than 62.5 nM in [26]; 36 nM in [27]. Further, the IC50 amounted to 135 nM in [28]; 2150 nM in [29]; 161 nM in assay [30]; 538 nM in assay [31]; 139 nM in assay [32]; 46.5 nM in [33]. Besides, the half-maximal inhibitory concentration (IC50) in assay [2] is 963 nM; in assay [3], less than 62.5 nM; in assay [34], 139 nM; in assay [35], less than 62.5 nM; in assay [36], 698 nM; in [37], 3140 nM. The IC50 in assay [4] is 2400 nM; in [38] it was 615 nM; in assay [39], 388 nM; in assay [40], less than 62.5 nM; in assay [41] it was 39.4 nM; in assay [42], 592 nM. Also, the concentration for half-maximal inhibition (IC50) in assay [5] stood at 26.2 nM; in [6] it was 17.1 nM; in [7], 6250 nM; in assay [43], 193 nM; in assay [44] it was 49.3 nM; in [45], 711 nM. Moreover, the IC50 in assay [46] amounted to 935 nM; in [47] it was 9550 nM; in assay [48] it was 884 nM; in assay [49], 13300 nM; in [50], 29.9 nM; in assay [51], 646 nM. The half-inhibitory concentration (IC50) in assay [8] was determined as 4560 nM; in assay [52] it was 809 nM; in assay [53] it was 2890 nM; in assay [54], 87.4 nM; in assay [55] it was 312 nM; in assay [9] it was 6740 nM. The IC50 in assay [56] was found to be 1130 nM; in assay [57], 441 nM; in assay [58], 441 nM; in [59], 5160 nM; in assay [60] it was 2190 nM; in assay [10], 88.8 nM. Also, the IC50 in assay [61] was less than 62.5 nM; in [62], 286 nM; in assay [63], greater than 16000 nM; in assay [64], 1010 nM.

Turning to `COc1cc(C)c(Sc2cnc(NC(=O)c3ccc(CNC(C)C(C)(C)C)cc3)s2)cc1C(=O)N1CCN(C(C)=O)CC1` (centres undefined), the IC50 in assay [1], in assay [2], in [3], in assay [4], in assay [5] and in [6] was greater than 10200 nM each time. Besides, the IC50 is greater than 10200 nM in assay [7], greater than 10200 nM in assay [8], greater than 10200 nM in [9] and 9110 nM in [10].

For `Cc1nc(Nc2ncc(C(=O)Nc3c(C)cccc3Cl)s2)cc(N2CCN(CCO)CC2)n1` [DASATINIB], the IC50 in [1], in assay [2], in [3], in [4], in assay [5] and in [6] was greater than 1280 nM each time. Further, the IC50 in [7], in assay [8], in assay [9] and in assay [10] was greater than 1280 nM in each case.

As to `Cc1n[nH]c2ccc(-c3cncc(OC[C@@H](N)Cc4c[nH]c5ccccc45)c3)cc12` [A-443654], the concentration for half-maximal inhibition (IC50) was 569 nM in assay [1]; greater than 1020 nM in assay [2]; 275 nM in [3]; 242 nM in assay [4]; 158 nM in assay [5]; 184 nM in [6]. Further, the IC50 in [7] was 546 nM; in assay [8], greater than 1020 nM; in assay [9], greater than 1020 nM; in assay [10], 701 nM.

As for `Cc1ccc(NC(=O)c2cccc(C(C)(C)C#N)c2)cc1Nc1ccc2ncn(C)c(=O)c2c1`, the IC50 in [1], in [2], in [3], in assay [4], in [5] and in assay [6] was greater than 4000 nM throughout. Moreover, the 50% inhibitory concentration (IC50) in assay [7], in assay [8], in assay [9] and in assay [10] was greater than 4000 nM throughout.

Take `Cc1[nH]c(/C=C2\C(=O)Nc3ccc(S(=O)(=O)Cc4c(Cl)cccc4Cl)cc32)c(C)c1C(=O)N1CCC[C@@H]1CN1CCCC1` [PHA-665752]: the IC50 in assay [1], in assay [2], in assay [3], in [4], in assay [5] and in [6] was greater than 2000 nM in each case. The concentration for half-maximal inhibition (IC50) in assay [7], in assay [8], in assay [9] and in [10] was greater than 2000 nM each time.
